Common to all, as to format: cell-based
Experiment [1] deals with T1, GHSR-1a (HEK293/GHSR1a cell line) (Homo sapiens, UniProt Q92847).
T1 construct: expressed in transfected cells; host or cells: HEK293/GHSR1a cell line
The experiment in a line: Ghrelin agonist potency (EC50) with calcium FLIPR assay. A digest of the protocol: (§1)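 Cells seeded 24 h before the run were loaded with calcium dye for 30-60 min at room temperature or 37° C. For agonism, compound was added at t=20 sec and the calcium signal followed for 2 minutes. For antagonism, compound plus ghrelin (10 nM) went on at t=20 sec, and IC50 reflected the drop in ghrelin response.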

Experiment [2] has as its target T1, GHSR-1a (HEK293/GHSR1a cell line). The experiment can be described thus: Ghrelin antagonist potency (IC50) with calcium FLIPR assay, ghrelin 10 nM. In outline: as §1
Experiment [3] has as its target T2, recombinant human ghrelin receptor (HEK293/GRLN) (Homo sapiens, UniProt Q92847).
T2 construct: expressed in transfected cells
The experiment in a line: Ghrelin inverse agonist potency (EC50) with IP-1 (IP-One HTRF) assay. The following applies: IP-1 assay. In outline: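 HEK293/GRLN cells were seeded 18-22 hours before the test, then exposed to compound in stimulation buffer for 1 hour at 37° C, 5% CO2. IP-1 was detected by IP-One HTRF (IP1-d2 plus Tb-cryptate, 1 hour RT), reading 620 and 665 nm; the inverse agonist EC50 was derived from this.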
In general terms: TR-FRET usually uses a lanthanide donor and a delayed reading to cut background.

Setting [4] is: HEK293/GHSR1a, read-out: Activity EC50/EMax: EC50 (ghrelin agonist potency).
Setting [5] is: HEK293/GHSR1a, ghrelin 10 nM, read-out: Activity IC50 (ghrelin antagonist potency).
[6] abbreviates: HEK293/GRLN, read-out: Activity EC50 (ghrelin inverse agonist potency).
[7] abbreviates: ghrelin agonist potency, read-out: Activity EC50/EMax.
The mark [8] stands for this setting: ghrelin antagonist potency, read-out: Activity IC50.
The mark [9] stands for this setting: ghrelin inverse agonist potency, read-out: Activity EC50.

Where two headings read alike, the source gives them in different places.

T2 sequence (Q92847 whole entry): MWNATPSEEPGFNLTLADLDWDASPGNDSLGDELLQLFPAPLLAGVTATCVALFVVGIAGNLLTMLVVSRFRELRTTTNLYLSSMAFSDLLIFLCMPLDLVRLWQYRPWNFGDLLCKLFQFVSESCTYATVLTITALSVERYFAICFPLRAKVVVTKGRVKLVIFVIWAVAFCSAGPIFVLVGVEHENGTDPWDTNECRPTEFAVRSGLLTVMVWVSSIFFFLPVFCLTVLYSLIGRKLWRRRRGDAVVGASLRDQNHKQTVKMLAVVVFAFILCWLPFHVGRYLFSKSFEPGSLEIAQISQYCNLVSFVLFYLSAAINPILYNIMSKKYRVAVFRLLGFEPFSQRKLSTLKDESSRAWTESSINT
T1 sequence (Q92847 whole entry): as above

As to `COc1ccc(C(C)NC(=O)Nc2ccc(S(=O)(=O)Cc3ccc4c(c3)CNC4)cc2)cc1` (stereo not drawn) [H1298, 1-(4-((isoindolin-5-ylmethyl)sulfonyl)phenyl)-3-(1-(4-methoxyphenyl)ethyl)urea], the values for the EC50 in experiment [1] (setting [4]) and in experiment [3] (setting [6]) were above 30000 nM and 115 nM, respectively. Moreover, the IC50 in experiment [2] (setting [5]) was determined as 506 nM.
Consider `CC(NC(=O)Nc1ccc(S(=O)(=O)Cc2ccc3c(c2)C[N+](C)([O-])C3)cc1)c1ccccc1` (stereo not drawn) [H1350, 2-methyl-5-(((4-(3-(1-phenylethyl)ureido)phenyl)sulfonyl)methyl)isoindoline 2-oxide], for which the EC50 in experiment [1] (setting [4]) is above 30000 nM; in experiment [3] (setting [6]) it was 7460 nM. Moreover, in experiment [2] (setting [5]), the IC50 worked out at 18200 nM.
On to `CC(NC(=O)Nc1ccc(S(=O)(=O)Cc2ccc3c(c2)CN(CC#N)C3)cc1)c1ccccc1` (stereo not drawn) [H1339, 1-(4-(((2-(cyanomethyl)isoindolin-5-yl)methyl)sulfonyl)phenyl)-3-(1-phenylethyl)urea], for which the EC50 in experiment [1] (setting [4]) is above 30000 nM; in experiment [3] (setting [6]), 176 nM. Moreover, the IC50 in experiment [2] (setting [5]) was 309 nM.
As for `CC(NC(=O)Nc1ccc(C(=O)Nc2ccc3c(c2)CN(C)C3)cc1)c1ccccc1` (stereo not drawn) [H1480, N-(2-methylisoindolin-5-yl)-4-(3-(1-phenylethyl)ureido)benzamide], the EC50 in experiment [1] (setting [7]) was above 30000 nM; in experiment [3] (setting [9]), above 10000 nM. Also, the IC50 in experiment [2] (setting [8]) worked out at 24200 nM.
With `CC(NC(=O)Nc1ccc(S(=O)(=O)Cc2ccc3c(c2)C(O)CC3)cc1)c1ccccc1` (stereo not drawn) [H1293, 1-(4-(((3-hydroxy-2,3-dihydro-1H-inden-5-yl)methyl)sulfonyl)phenyl)-3-(1-phenylethyl)urea], the figures for the EC50 in experiment [1] (setting [4]) and in experiment [3] (setting [6]) were above 30000 nM and 930 nM, respectively. Moreover, the IC50 in experiment [2] (setting [5]) is 5680 nM.
The matching figures for `CC(=O)N1CC(NC(=O)Nc2ccc(S(=O)(=O)Cc3ccc4c(c3)CN(C)C4)cc2)c2ccccc21` (stereo not drawn) [H1354, 1-(1-acetylindolin-3-yl)-3-(4-(((2-methylisoindolin-5-yl)methyl)sulfonyl)phenyl)urea]: above 30000 nM, 8610 nM and 8900 nM.
The matching figures for `COc1cc(S(=O)(=O)Cc2cc3c(cc2F)CNCC3)ccc1NC(=O)NC(C)c1cccc(Cl)c1Cl` (stereo not drawn) [H1439, 1-(1-(2,3-dichlorophenyl)ethyl)-3-(4-(((7-fluoro-1,2,3,4-tetrahydroisoquinolin-6-yl)methyl)sulfonyl)-2-methoxyphenyl)urea]: above 30000 nM, 14.1 nM and 12.4 nM.
Turning to `CC(c1ccccc1)N(C)C(=O)Nc1ccc(S(=O)(=O)Cc2ccc3c(c2)CNC3)cc1O` (stereo not drawn) [H1460, 3-(2-hydroxy-4-((isoindolin-5-ylmethyl)sulfonyl)phenyl)-1-methyl-1-(1-phenylethyl)urea], the EC50 in experiment [1] (setting [7]) is above 30000 nM; in experiment [3] (setting [9]) it was 163 nM. In addition, the IC50 in experiment [2] (setting [8]) is 536 nM.
As for `COc1cc(S(=O)(=O)Cc2ccc3c(c2)CCNC3)ccc1NC(=O)N(C)C(C)c1ccccc1` (stereo not drawn) [H1413, 3-(2-methoxy-4-(((1,2,3,4-tetrahydroisoquinolin-6-yl)methyl)sulfonyl)phenyl)-1-methyl-1-(1-phenylethyl)urea], the EC50 in experiment [1] (setting [4]) was above 30000 nM; in experiment [3] (setting [6]) it was 225 nM. In experiment [2] (setting [5]), the IC50 came to 681 nM.
For the molecule `CC(NC(=O)Nc1ccc(S(=O)(=O)Cc2ccc3c(c2F)CCN(C)C3)cc1)c1cccc(Cl)c1Cl` (stereo not drawn) [H1367, 1-(1-(2,3-dichlorophenyl)ethyl)-3-(4-(((5-fluoro-2-methyl-1,2,3,4-tetrahydroisoquinolin-6-yl)methyl)sulfonyl)phenyl)urea], the results for the EC50 in experiment [1] (setting [4]) and in experiment [3] (setting [6]) were above 30000 nM and 3.3 nM, respectively. The IC50 in experiment [2] (setting [5]) is 21.2 nM.
Consider `CC(NC(=O)Nc1ccc(S(=O)(=O)Cc2ccc3c(c2)CN(C)C3)cc1CO)c1ccccc1` (stereo not drawn) [H1468, 1-(2-(hydroxymethyl)-4-(((2-methylisoindolin-5-yl)methyl)sulfonyl)phenyl)-3-(1-phenylethyl)urea], for which the EC50 was above 30000 nM in experiment [1] (setting [7]) and 18.2 nM in experiment [3] (setting [9]). Besides, in experiment [2] (setting [8]), the IC50 amounted to 80.6 nM.
Consider `CN1Cc2ccc(CS(=O)(=O)c3ccc(NC(=O)N[C@@H]4CCCc5ccccc54)cc3)cc2C1` [H1336, (R)-1-(4-(((2-methylisoindolin-5-yl)methyl)sulfonyl)phenyl)-3-(1,2,3,4-tetrahydronaphthalen-1-yl)urea], for which the results for the EC50 in experiment [1] (setting [4]) and in experiment [3] (setting [6]) were above 30000 nM and 263 nM, respectively. Moreover, the IC50 in experiment [2] (setting [5]) amounted to 381 nM.
In the same order, the values of `COc1cc(S(=O)(=O)Cc2ccc3c(c2)CCN(C)C3)ccc1NC(=O)NC(C)c1c(F)cccc1F` (stereo not drawn) [H1436, 1-(1-(2,6-difluorophenyl)ethyl)-3-(2-methoxy-4-(((2-methyl-1,2,3,4-tetrahydroisoquinolin-6-yl)methyl)sulfonyl)phenyl)urea] are above 30000 nM, 4.3 nM and 19.5 nM.
The matching figures for `COc1cc(S(=O)(=O)Cc2cc(F)c3c(c2)CCNC3)ccc1NC(=O)NC(C)c1cccc(Cl)c1Cl` (stereo not drawn) [H1424, 1-(1-(2,3-dichlorophenyl)ethyl)-3-(4-(((8-fluoro-1,2,3,4-tetrahydroisoquinolin-6-yl)methyl)sulfonyl)-2-methoxyphenyl)urea]: above 30000 nM, 8.9 nM and 15.4 nM.
As for `CN1CCc2cc(CS(=O)(=O)c3ccc(NC(=O)NCc4cccc(Cl)c4Cl)cc3)ccc2C1` [H1349, 1-(2,3-dichlorobenzyl)-3-(4-(((2-methyl-1,2,3,4-tetrahydroisoquinolin-6-yl)methyl)sulfonyl)phenyl)urea], the EC50 in experiment [1] (setting [4]) is above 30000 nM; in experiment [3] (setting [6]) it was 29 nM. Further, the IC50 in experiment [2] (setting [5]) is 15.3 nM.
Regarding `CC(NC(=O)Nc1ccc(S(=O)(=O)Cc2ccc3c(c2)CNC3)cc1)c1ccccn1` (stereo not drawn) [H1289, 1-(4-((isoindolin-5-ylmethyl)sulfonyl)phenyl)-3-(1-(pyridin-2-yl)ethyl)urea], the results for the EC50 in experiment [1] (setting [4]) and in experiment [3] (setting [6]) were 147 nM and 161 nM, respectively. The half-inhibitory concentration (IC50) in experiment [2] (setting [5]) turned out to be 542 nM.
Take `COc1ccc(C(C)NC(=O)Nc2ccc(S(=O)(=O)Cc3ccc4c(c3)CCN(C)C4)cc2OC)cc1` (stereo not drawn) [H1442, 1-(2-methoxy-4-(((2-methyl-1,2,3,4-tetrahydroisoquinolin-6-yl)methyl)sulfonyl)phenyl)-3-(1-(4-methoxyphenyl)ethyl)urea]: the results for the EC50 in experiment [1] (setting [4]) and in experiment [3] (setting [6]) were above 30000 nM and 16.4 nM, respectively. Further, the IC50 in experiment [2] (setting [5]) was 58.1 nM.
On to `COc1cc(S(=O)(=O)Cc2ccc(CO)cc2)ccc1NC(=O)NC(C)c1ccc(OC)c(Cl)c1Cl` (stereo not drawn) [H1435, 1-(1-(2,3-dichloro-4-methoxyphenyl)ethyl)-3-(4-((4-(hydroxymethyl)benzyl)sulfonyl)-2-methoxyphenyl)urea], for which the EC50 in experiment [1] (setting [4]) is above 30000 nM; in experiment [3] (setting [6]), above 10000 nM. Besides, the IC50 in experiment [2] (setting [5]) is above 30000 nM.
Consider `COc1cc(S(=O)(=O)Cc2nc3c(s2)CN(C)C3)ccc1NC(=O)N[C@@H](C)c1ccccc1` [H1464, (S)-1-(2-methoxy-4-(((5-methyl-5,6-dihydro-4H-pyrrolo[3,4-d]thiazol-2-yl)methyl)sulfonyl)phenyl)-3-(1-phenylethyl)urea], for which the EC50 in experiment [1] (setting [7]) is above 30000 nM; in experiment [3] (setting [9]), 290 nM. Further, the IC50 in experiment [2] (setting [8]) worked out at 2960 nM.
With `CC(NC(=O)Nc1ccc(S(=O)(=O)Cc2cc3c(s2)CNC3)cc1)c1ccccc1` (stereo not drawn) [H1320, 1-(4-(((5,6-dihydro-4H-thieno[2,3-c]pyrrol-2-yl)methyl)sulfonyl)phenyl)-3-(1-phenylethyl)urea], the EC50 was above 30000 nM in experiment [1] (setting [4]) and 43.3 nM in experiment [3] (setting [6]). In addition, in experiment [2] (setting [5]), the IC50 was 58.4 nM.
The matching figures for `CN1Cc2ccc(CS(=O)(=O)c3ccc(NC(=O)NC4CNc5ccccc54)cc3)cc2C1` (stereo not drawn) [H1358, 1-(indolin-3-yl)-3-(4-(((2-methylisoindolin-5-yl)methyl)sulfonyl)phenyl)urea]: above 30000 nM, 1820 nM and 1880 nM.
For the molecule `CC(NC(=O)Nc1ccc(S(=O)(=O)Cc2ccc3c(c2)CNC3)cc1-c1ccncc1)c1ccccc1` (stereo not drawn) [H1534, 1-(4-((isoindolin-5-ylmethyl)sulfonyl)-2-(pyridin-4-yl)phenyl)-3-(1-phenylethyl)urea], the EC50 was above 30000 nM in experiment [1] (setting [7]) and 89.5 nM in experiment [3] (setting [9]). Moreover, the IC50 in experiment [2] (setting [8]) is 1660 nM.
In the same order, the values of `CC(NC(=O)Nc1ccc(S(=O)(=O)Cc2ccc3c(c2)CNC3)cc1Br)c1ccccc1` (stereo not drawn) [H1485, 1-(2-bromo-4-((isoindolin-5-ylmethyl)sulfonyl)phenyl)-3-(1-phenylethyl)urea] are above 30000 nM, 10.2 nM and 19.1 nM.
For `CC(NC(=O)Nc1ccc(S(=O)(=O)Cc2ccc3c(c2)CN(C)C3)cc1)c1ccc2c(c1)OCO2` (stereo not drawn) [H1453, 1-(1-(benzo[d][1,3]dioxol-5-yl)ethyl)-3-(4-(((2-methylisoindolin-5-yl)methyl)sulfonyl)phenyl)urea], the results for the EC50 in experiment [1] (setting [4]) and in experiment [3] (setting [6]) were above 30000 nM and 46.8 nM, respectively. In experiment [2] (setting [5]), the IC50 is 109 nM.

In general, IC50 refers to the concentration at which inhibition is half-maximal.

The values above are taken from US10501479B2, “Benzenesulfonyl-asymmetric ureas and medical uses thereof” (HELSINN HEALTHCARE SA, priority 2016, dated 2019).
